We go through one compound from US8921270B2, “Method for pre-emergent weed control using triazine-based herbicide” (Amvac Chemical Corporation, priority 2011, dated 2014).

Series [1] deals with corn. The settings on record: in vivo. The method, then: (§1) Several scientific and replicated field research trials were conducted in multiple locations to evaluate weed control and crop tolerance of herbicide compositions containing about 80% by weight of ametryn active ingredient in the form of a water dispersible granule (WDG). The herbicide compositions were applied to the soil surface with or without weeds present at specific intervals i) before planting (preplant), ii) prior to planting and incorporated into the soil (preplant incorporated), and iii) after planting of the corn, but prior to emergence (preemergence).
Small plot research trials were conducted using a statistical design known as Randomized Complete Block Design (RCBD), which assumes that a population of experimental units can be divided into a number of relatively homogeneous subpopulations or blocks. […] In the analysis, the variation among blocks can be partitioned out of the experimental error (MSE), thereby reducing this quantity and increasing the power of the test. […]
Efficacy on weeds and crop tolerance evaluations were conducted at specified intervals for each trial. […] Crop tolerance was evaluated at intervals of 7 to 14, 21 to 28, and 42 to 56 days after corn emergence in these trials. […] In an additional trial, efficacy of ametryn at rates of 1.2, 1.6 and 2.4 lb ai/a applied PRE was evaluated on grass and broadleaf weeds at the same intervals as the earlier trials. […]

The test system of series [2] is Waterhemp. Briefly: Weed control field trial, Geneva, Minn., medium textured soil (Example 10). Particulars: PRE; 60 days after application. The series is classed as in vivo. Here is the method:
as §1
(§2) Small plot research trials were conducted using a statistical design known as Randomized Complete Block Design (RCBD), which assumes that a population of experimental units can be divided into a number of relatively homogeneous subpopulations or blocks. The treatments are then randomly assigned to experimental units such that each treatment occurs equally often (usually once) in each block—i.e., each block contains all treatments. Blocks usually represent levels of naturally occurring differences or sources of variation that are unrelated to the treatments. In the analysis, the variation among blocks can be partitioned out of the experimental error (MSE), thereby reducing this quantity and increasing the power of the test. See, Clewer, A. G., and D. H. Scarisbrick. 2001. Practical statistics and experimental design for plant and crop science. John Wiley & Sons Ltd., New York. crop science. Treatment size was typically 4 rows of corn on 30-inch row spacing×30 feet long replicated 3 to 4 times. Preplant, preplant incorporated (PPI), or preemergence (PRE) treatments were uniformly applied with a hand-held backpack sprayer pressurized with compressed air or carbon dioxide (CO2) as the propellant to simulate commercial scale application. Treatments were applied using flat fan nozzle or spray nozzles at from 30 to 35 pounds per square inch (psi) delivering from 15 to 20 gallons of finished spray solution per acre.
(§3) Efficacy on weeds and crop tolerance evaluations were conducted at specified intervals for each trial. […] Crop tolerance was evaluated at intervals of 7 to 14, 21 to 28, and 42 to 56 days after corn emergence in these trials. […] The efficacy of ametryn at a rate of 0.8, 1.2, 1.6 and 2.4 lbs ai/a applied 7 to 14 days preplant was evaluated on grass and broadleaf weeds at intervals of 7 to 14, 21 to 28, and 42 to 56 days after corn emergence. […] In an additional trial, efficacy of ametryn at rates of 1.2, 1.6 and 2.4 lb ai/a applied PRE was evaluated on grass and broadleaf weeds at the same intervals as the earlier trials. […]

The subject of series [3] is Lambsquarters. Described as above. The series is classed as in vivo. Particulars: PRE; 32 days after application. Here is the method:
as §1, §2, §3

Series [4] deals with Velvetleaf. The series is described as above. The settings on record: PRE; 32 days after application. The series is classed as in vivo. Here is the method:
as §1, §2, §3

Series [5] relates to Giant Foxtail. Described as above. Type of series: in vivo. The settings on record: PRE; 32 days after application. Here is the method: as §1, §2, §3
Series [6] relates to Waterhemp. The series can be described thus: Weed control field trial, Laurel, Md., light textured soil (Example 5). Type of series: in vivo. Particulars: 1.2, 1.6, 2.4 lb ai/a PRE; 27 and 56 days after corn emergence. Here is the method:
as §1, §2
(§4) Efficacy on weeds and crop tolerance evaluations were conducted at specified intervals for each trial. Ametryn herbicide (80% WDG) was applied to the soil at the times relative to planting as indicated at rates of 0.8, 1.2, 1.6, and 2.4 pounds of active ingredient per acre (lb ai/a) at various days preplant up to right before planting (0 day preplant), or immediately following planting (PRE), but before crop emergence. Crop tolerance was evaluated at intervals of 7 to 14, 21 to 28, and 42 to 56 days after corn emergence in these trials. Crop injury, if observed, was reported on a 0 to 100% visual rating scale and the type of injury (e.g., stunting) was noted. The efficacy of ametryn at a rate of 0.8, 1.2, 1.6 and 2.4 lbs ai/a applied 7 to 14 days preplant was evaluated on grass and broadleaf weeds at intervals of 7 to 14, 21 to 28, and 42 to 56 days after corn emergence. Efficacy trials were also conducted in no tillage and reduced tillage cropping systems, allowing for evaluations of existing weeds at application (i.e., burndown) and residual control of weeds which germinate following application. In an additional trial, efficacy of ametryn at rates of 1.2, 1.6 and 2.4 lb ai/a applied PRE was evaluated on grass and broadleaf weeds at the same intervals as the earlier trials. Efficacy in the later trials was conducted in both conventional and reduced tillage systems, which allowed for evaluations of residual weed control following application. A local commercial corn hybrid was planted in each trial location.
(§5) A weed control field trial was conducted in Laurel, Md. on a light textured soil. Ametryn herbicide (80% WDG) was applied preemergence to bare soil in the field to Giant Foxtail, Velvetleaf, Waterhemp, Giant Ragweed, Morningglory, and Cocklebur at rates of 1.2, 1.6 and 2.4 pounds of active ingredient per acre (lb ai/a) immediately following planting (PRE) and prior to corn emergence. The application volume was between 15 and 25 gallons per acre. […]

The subject of series [7] is Morningglory. The series is described as above. The series is classed as in vivo. The settings on record: 1.2, 1.6, 2.4 lb ai/a PRE; 27 and 56 days after corn emergence. Here is the method: as §1, §2, §4, §5
The test system of series [8] is Velvetleaf. The description is as above. Type of series: in vivo. Particulars: 1.2, 1.6, 2.4 lb ai/a PRE; 27 and 56 days after corn emergence. Here is the method:
as §1, §2, §4, §5

Series [9] relates to Giant Ragweed. Described as above. Type of series: in vivo. The settings on record: 1.2, 1.6, 2.4 lb ai/a PRE; 27 and 56 days after corn emergence. Here is the method: as §1, §2, §4, §5
In series [10] the test system is Cocklebur. The series is described as above. Type of series: in vivo. Particulars: 1.2, 1.6, 2.4 lb ai/a PRE; 27 and 56 days after corn emergence. The method, then:
as §1, §2, §4, §5

The subject of series [11] is Giant Foxtail. The series is described as above. The series is classed as in vivo. The settings on record: 1.2, 1.6, 2.4 lb ai/a PRE; 27 and 56 days after corn emergence. Here is the method:
as §1, §2, §4, §5

In series [12] the test system is Redroot Pigweed. Briefly: Weed control field trial, Fishers, Ind., fine textured soil (Example 8). Type of series: in vivo. The settings on record: PRE, rate of 1.6 lb ai/a. Here is the method:
as §1, §2, §3

Series [13] relates to Lambsquarters. The series is described as above. The series is classed as in vivo. Particulars: PRE, rate of 1.6 lb ai/a. Here is the method: as §1, §2, §3
The subject of series [14] is Velvetleaf. The series is described as above. The series is classed as in vivo. The settings on record: PRE, rate of 1.6 lb ai/a. Here is the method:
as §1, §2, §3

The test system of series [15] is Giant Foxtail. The description is as above. Type of series: in vivo. Particulars: PRE, rate of 1.6 lb ai/a. The method, then: as §1, §2, §3
For series [16], the system named is Redroot Pigweed. The series can be described thus: Weed control field trial, Wyoming, Ill., medium textured soil (Example 7). The series is classed as in vivo. The settings on record: PRE; 8 weeks observation after application. The method, then: as §1, §2, §3
The test system of series [17] is Giant Foxtail. Described as above. The series is classed as in vivo. The settings on record: PRE; 8 weeks observation after application. Here is the method: as §1, §2, §3

On to `CCNc1nc(NC(C)C)nc(SC)n1` [ametryn, 2-ethylamino-4-isopropylamino-6-methylthio-s-triazine], for which the “Percent corn injury (corn safety)” value in [1] is on record as “excellent corn safety”. Further, the Weed control result is on record as “moderate control” in series [2]; “good control” in series [3]; “good control” in series [4]; “good control” in series [5]; “good weed control” in series [12]; “good weed control” in series [13]. Besides, the Weed control entry in [14] is given as “moderate weed control”; in series [15], “moderate weed control”; in series [16], “good control”; in series [17], “good control”. Further, the Percent weed control entry in series [6], in series [7], in series [8], in [9], in [10] and in series [11] was “significant improvement of weed control over the untreated treatment” in each case.
